The values below come from US20250188060A1, “ALPHA1A-ADRENERGIC RECEPTOR AGONISTS AND METHODS OF USE” (CuraSen Therapeutics, Inc., priority 2022, published 2025).

Counter-ions that a name gives are not always drawn. Like-named read-outs stand apart in the source and are kept apart here.

In experiment [1] the target is T1, α1A-adrenergic receptor (Homo sapiens, UniProt P35348).
T1 sequence (P35348 1-466): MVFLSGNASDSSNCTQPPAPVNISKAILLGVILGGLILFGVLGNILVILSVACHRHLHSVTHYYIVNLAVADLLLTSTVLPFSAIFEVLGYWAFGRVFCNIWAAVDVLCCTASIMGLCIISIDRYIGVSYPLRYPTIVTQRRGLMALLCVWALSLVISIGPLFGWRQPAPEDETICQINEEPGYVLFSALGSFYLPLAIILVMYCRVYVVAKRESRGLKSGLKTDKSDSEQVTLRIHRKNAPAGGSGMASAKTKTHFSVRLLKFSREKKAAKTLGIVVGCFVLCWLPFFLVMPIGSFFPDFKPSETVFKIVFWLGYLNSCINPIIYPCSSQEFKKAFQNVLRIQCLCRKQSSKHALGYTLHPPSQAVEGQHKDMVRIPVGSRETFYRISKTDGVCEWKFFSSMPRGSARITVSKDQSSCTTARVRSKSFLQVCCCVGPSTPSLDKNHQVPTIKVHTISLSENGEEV
The note with it: as compared to noradrenaline; InsPs accumulation assay; Blue et al., Table 1; cited from earlier work.

Experiment [2] has as its target T1, α1A-adrenergic receptor. As to conditions: as compared to noradrenaline; FLIPR assay; Blue et al., Table 1; cited from earlier work.
The next experiment concerns the target T2, α1A-ARs (Homo sapiens, UniProt P35348).
T2 sequence (P35348 1-466): T1 sequence (P35348 1-466)
Briefly: Calcium flux assay (Calcium 6 dye) in cells expressing an α1-AR. As to conditions: for Emax: read-out: Average Emax (% epi); for EC50: read-out: Average pEC50 (converted). The class given is cell-based. An excerpt: Calcium flux experimental design: alpha-1 adrenergic receptors (α1-ARs) couple to Gq proteins, which results in downstream activation of phospholipase C and release of calcium from intracellular stores. Intracellular calcium increase upon α1-AR activation can be detected by Calcium 6 dye.
Cell preparation: cells expressing an α1-AR were washed in warmed phosphate-buffered saline to remove medium and harvested using versene (Caisson Labs, catalog #EDL01).
Media was removed from cells by tapping plates upside-down on absorbent wipes, followed by 15 second upside-down 50×g centrifugation, again on absorbent wipes. 12 μL cell dye solution was added to cells using a reagent dispenser (Integra viaFILL) and cells were incubated for 90 minutes at 37° C., 5% CO2.
Compound preparation: candidate alpha-adrenergic compounds, dissolved to 10 mM in DMSO, were diluted in assay buffer (HBSS/HEPES containing 2 mM CaCl2) and 2 mM probenecid sodium salt). […] On all assay plates, vehicle (DMSO) and positive control (10 μM epinephrine) conditions were included on the plate, as well as a dose-response curve of epinephrine. […] 384 well compound plates were centrifuged briefly at 250×g, sealed (Axygen PCR-SP) and incubated at 37° C. until the 90 minute cell dye incubation was complete.
Calcium 6 stained cells and 384 well compound plates were loaded onto the Flexstation and incubated on the machine for 5 minutes before initiating the assay.
For each assay well, baseline Calcium 6 fluorescence was detected for 18 seconds prior to 12 μL compound addition at 12 μL per second. Changes in Calcium 6 fluorescence were detected for a further 22 seconds, for a total read time of 40 seconds. All detection was performed with medium gain sensitivity, bottom read, with 6 flashes per read.
Data analysis: for calcium flux, analysis of maximum change from baseline over the 40-second read time was determined using Softmax Pro and data was exported as raw text files. Potency estimates (EC50) were derived from dose response curves (maximum change from baseline versus the log concentration of test compound) fit by four-parameter nonlinear regression using Graphpad Prism. Efficacy was determined by comparing the magnitude of the test compound signal window (fitted curve max−min) with the signal window of the full agonist control, epinephrine. […] All experiments were repeated a minimum of three times, with the average (mean) potency and maximum effect relative to the within-plate full agonist dose-response comparator reported.
On the technique in general: A change in cytosolic calcium serves as a functional read-out for many receptors and channels.

The mark [3] stands for this setting: α1A-AR calcium flux, mean of at least three experiments.
Where [4] appears, read: α1A-AR calcium flux, relative to full agonist epinephrine, mean of at least three experiments.

Regarding `Cc1c(OCC2=NCCN2)ccc(Cl)c1NS(C)(=O)=O` [RO 115-1240 (dabuzalgron) HCl salt, dabuzalgron], the intrinsic activity on α1A-adrenergic receptor [1] is on record as 0.27; on α1A-adrenergic receptor [2] it was 0.51.

Turning to `Cc1c(OCC2=NCCN2)ccc(Cl)c1NS(C)(=O)=O` [RO 115-1240 (dabuzalgron) free base, dabuzalgron], at α1A-adrenergic receptor [1], the intrinsic activity is on record as 0.31.

In the case of `CC(C)c1cccc2c(Cl)nn(CC3=NCCN3)c12` [Compound 47], at α1A-ARs, the Emax was > 61%. Further, the EC50 on α1A-ARs (setting [3]) was 0.01 to 0.977 µM.

With `Clc1cccc2c(-c3ccncc3)nn(CC3=NCCN3)c12` [Compound 49], the EC50 on α1A-ARs (setting [3]) was 0.01 to 0.977 µM. For the same compound, the Emax on α1A-ARs (setting [4]) was 21 to 60%.

With `Clc1nn(CC2=NCCN2)c2c(Cl)cccc12` [Compound 20], the maximum response (Emax) on α1A-ARs was > 61%. Besides, the EC50 on α1A-ARs (setting [3]) is 0.01 to 0.977 µM.

Consider `Clc1cccc2c(-c3ccccn3)nn(CC3=NCCN3)c12` [Compound 51], for which, on α1A-ARs (setting [3]), the EC50 is 0.01 to 0.977 µM. Also, the Emax on α1A-ARs (setting [4]) lay in the range of 21 to 60%.

Take `Clc1cccc2c(-c3ccon3)nn(CC3=NCCN3)c12` [Compound 63]: the EC50 at α1A-ARs (setting [3]) is 0.01 to 0.977 µM. Moreover, at α1A-ARs (setting [4]), the Emax is > 61%.

For the compound `Clc1cccc2c(C3CC3)cn(CC3=NCCN3)c12` [Compound 3], on α1A-ARs, the Emax was 21 to 60%. Also, at α1A-ARs (setting [3]), the EC50 was < 0.00977 µM.

On to `Cc1cc(Cl)cc2c(N3CCCCC3)nn(CC3=NCCN3)c12` [Compound 69], for which the EC50 at α1A-ARs (setting [3]) was > 1 µM. In addition, the maximal effect (Emax) at α1A-ARs (setting [4]) was < 20%.

As to `Fc1cccc2c(Cl)nn(CC3=NCCN3)c12` [Compound 26], at α1A-ARs, the maximal effect (Emax) fell in the range of 21 to 60%. Also, the EC50 on α1A-ARs (setting [3]) is 0.01 to 0.977 µM.

As to `FC(F)(F)c1nn(CC2=NCCN2)c2c(Cl)cccc12` [Compound 25], at α1A-ARs, the Emax was 21 to 60%. The EC50 on α1A-ARs (setting [3]) was 0.01 to 0.977 µM.

In the case of `Fc1cc(Cl)c2c(c1)c(Cl)nn2CC1=NCCN1` [Compound 23], the Emax at α1A-ARs is > 61%. Further, at α1A-ARs (setting [3]), the EC50 is 0.01 to 0.977 µM.

For the compound `Clc1nn(CC2=NCCN2)c2c(N3CCCCC3)cccc12` [Compound 70], on α1A-ARs (setting [3]), the EC50 is 0.01 to 0.977 µM. Besides, the maximum response (Emax) on α1A-ARs (setting [4]) was 21 to 60%.

As for `FC(F)(F)Oc1cccc2c(Cl)nn(CC3=NCCN3)c12` [Compound 37], the EC50 on α1A-ARs (setting [3]) was 0.01 to 0.977 µM. The Emax on α1A-ARs (setting [4]) is > 61%.

What is called Emax is the size of the effect at its maximum, as opposed to the concentration needed.
